Measurements published in the NIST ThermoML archive (doi:10.1021/je400101s).

Assay: mn = molality of the nth substance listed, in mol/kg
Conditions: 101 kPa, Liquid; for electrical conductivity: METLER TOLEDO SevenEasyTM conductivity meter

CCCC[P+](CC)(CCCC)CCCC.[Br-] [ethyltributylphosphonium bromide] + O
Conditions	electrical conductivity, 298.15 K [S/m]	electrical conductivity, 303.15 K [S/m]	electrical conductivity, 308.15 K [S/m]	mass density, 298.15 K [kg/m3]	mass density, 303.15 K [kg/m3]	mass density, 308.15 K [kg/m3]	viscosity, 298.15 K [mPa·s]	viscosity, 303.15 K [mPa·s]	viscosity, 308.15 K [mPa·s]
m1 = 0.5002	1.77	1.83	1.89	1010.54	1008.66	1006.6	1.404	1.225	1.084
m1 = 0.7497	2.04	2.14	2.21	1016.07	1013.98	1011.69	1.801	1.589	1.426
m1 = 1	2.21	2.33	2.41	1021.34	1018.99	1016.49	2.006	1.742	1.524
m1 = 1.995	2.35	2.49	2.63	1038.07	1034.94	1031.74	3.177	2.633	2.19
m1 = 3.001	2.2	2.36	2.55	1048.55	1045.08	1041.59	4.806	3.978	3.331
m1 = 4	2.03	2.21	2.42	1055.26	1051.66	1048.01	6.391	5.291	4.447
m1 = 4.997	1.87	2.05	2.25	1060.4	1056.71	1053	7.976	6.54	5.441
m1 = 5.998	1.72	1.9	2.11	1064.15	1060.43	1056.66	9.681	7.852	6.459
m1 = 6.501	1.65	1.85	2.06	1065.49	1062.17	1058.22	10.62	8.579	7.005
m1 = 6.984	1.58	1.78	1.98	1066.91	1063.18	1059.41	11.58	9.33	7.561
m1 = 8.001	–	–	–	1069.18	1065.46	1061.69	–	–	–
m1 = 8.994	–	–	–	1070.97	1067.25	1063.49	–	–	–

CCCC[P+](CCCC)(CCCC)CCCC.[Br-] [tetrabutylphosphonium bromide] + O
Conditions	electrical conductivity, 298.15 K [S/m]	electrical conductivity, 303.15 K [S/m]	electrical conductivity, 308.15 K [S/m]	mass density, 298.15 K [kg/m3]	mass density, 303.15 K [kg/m3]	mass density, 308.15 K [kg/m3]	viscosity, 298.15 K [mPa·s]	viscosity, 303.15 K [mPa·s]	viscosity, 308.15 K [mPa·s]
m1 = 0.4996	1.61	1.65	1.72	1008.5	1006.58	1004.44	1.483	1.282	1.142
m1 = 0.7513	1.81	1.89	1.99	1013.67	1011.4	1008.98	1.871	1.677	1.469
m1 = 0.9998	1.93	2.03	2.15	1017.95	1015.41	1012.75	2.246	1.915	1.66
m1 = 1.999	1.97	2.08	2.251	1030.09	1026.84	1023.52	3.875	3.1	2.61
m1 = 2.999	1.84	1.95	2.13	1037.03	1033.51	1029.96	5.641	4.589	3.839
m1 = 4.004	1.69	1.81	2	1041.4	1037.76	1034.07	7.374	6.059	5.037
m1 = 4.994	1.54	1.66	1.85	1044.28	1040.58	1036.87	9.03	7.403	6.085
m1 = 6.002	1.43	1.54	1.73	1046.66	1042.92	1039.15	10.65	8.71	7.101
m1 = 6.503	1.4	1.51	1.68	1047.29	1043.96	1039.91	11.46	9.333	7.618
m1 = 7.006	1.33	1.44	1.61	1048.18	1044.43	1040.68	12.29	9.946	8.17
m1 = 8	–	–	–	1049.41	1045.66	1041.87	–	–	–
m1 = 8.996	–	–	–	1050.43	1046.7	1042.93	–	–	–
